The source of these data is article PMC9364112, “A natural fusion of flavodiiron, rubredoxin, and rubredoxin oxidoreductase domains is a self-sufficient water-forming oxidase of Trichomonas vaginalis” (The Journal of Biological Chemistry, 2022).

What all share (assay): LC-MS quantification of bound flavin
What all share (type): binding

Test [1] has as its target T1, TvFDPF3 (holoTvFDPF3) (Trichomonas vaginalis, UniProt A2E972).
T1 construct: gene TVAG_121610; full length, 871 residues, C-terminal His6 (pET30a, E. coli BL21 Star DE3), ~100 kDa on SDS-PAGE; FDP-core head-to-tail dimer; holo preparation with full FAD/FMN
T1 sequence (A2E972 1-871): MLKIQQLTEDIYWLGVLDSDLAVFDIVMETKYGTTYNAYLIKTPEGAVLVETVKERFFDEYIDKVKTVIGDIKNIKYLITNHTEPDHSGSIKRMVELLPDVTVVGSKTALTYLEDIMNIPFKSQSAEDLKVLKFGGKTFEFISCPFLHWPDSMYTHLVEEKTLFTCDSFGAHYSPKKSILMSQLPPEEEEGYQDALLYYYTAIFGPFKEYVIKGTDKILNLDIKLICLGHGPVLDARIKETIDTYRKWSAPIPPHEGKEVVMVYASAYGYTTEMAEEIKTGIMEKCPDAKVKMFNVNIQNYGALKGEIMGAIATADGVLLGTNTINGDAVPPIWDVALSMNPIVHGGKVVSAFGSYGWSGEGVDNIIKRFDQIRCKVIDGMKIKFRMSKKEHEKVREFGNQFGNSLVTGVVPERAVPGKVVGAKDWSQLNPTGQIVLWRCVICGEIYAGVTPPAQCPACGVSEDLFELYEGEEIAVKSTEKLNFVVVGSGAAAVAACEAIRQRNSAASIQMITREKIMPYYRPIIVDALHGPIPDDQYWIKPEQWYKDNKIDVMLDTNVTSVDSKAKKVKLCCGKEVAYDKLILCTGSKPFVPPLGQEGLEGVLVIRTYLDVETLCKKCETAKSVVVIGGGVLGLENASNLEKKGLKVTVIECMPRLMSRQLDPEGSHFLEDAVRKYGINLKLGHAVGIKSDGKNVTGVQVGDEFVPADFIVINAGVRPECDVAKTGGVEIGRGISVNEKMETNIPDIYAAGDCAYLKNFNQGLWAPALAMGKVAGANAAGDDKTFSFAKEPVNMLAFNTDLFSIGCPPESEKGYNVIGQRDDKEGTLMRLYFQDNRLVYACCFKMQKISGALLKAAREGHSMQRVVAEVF
As to conditions: co-purified cofactor, NROR domain. An excerpt:
LC-MS quantification of bound flavin on TvFDPF3 (holoTvFDPF3)

Test [2] deals with T2, TvFDPF2 (Trichomonas vaginalis, UniProt A2EVX8).
T2 construct: gene TVAG_049830; full length, 871 residues, C-terminal His6 (pET30a, E. coli BL21 Star DE3); aggregation-prone; poor FAD and FMN occupancy
T2 sequence (A2EVX8 1-871): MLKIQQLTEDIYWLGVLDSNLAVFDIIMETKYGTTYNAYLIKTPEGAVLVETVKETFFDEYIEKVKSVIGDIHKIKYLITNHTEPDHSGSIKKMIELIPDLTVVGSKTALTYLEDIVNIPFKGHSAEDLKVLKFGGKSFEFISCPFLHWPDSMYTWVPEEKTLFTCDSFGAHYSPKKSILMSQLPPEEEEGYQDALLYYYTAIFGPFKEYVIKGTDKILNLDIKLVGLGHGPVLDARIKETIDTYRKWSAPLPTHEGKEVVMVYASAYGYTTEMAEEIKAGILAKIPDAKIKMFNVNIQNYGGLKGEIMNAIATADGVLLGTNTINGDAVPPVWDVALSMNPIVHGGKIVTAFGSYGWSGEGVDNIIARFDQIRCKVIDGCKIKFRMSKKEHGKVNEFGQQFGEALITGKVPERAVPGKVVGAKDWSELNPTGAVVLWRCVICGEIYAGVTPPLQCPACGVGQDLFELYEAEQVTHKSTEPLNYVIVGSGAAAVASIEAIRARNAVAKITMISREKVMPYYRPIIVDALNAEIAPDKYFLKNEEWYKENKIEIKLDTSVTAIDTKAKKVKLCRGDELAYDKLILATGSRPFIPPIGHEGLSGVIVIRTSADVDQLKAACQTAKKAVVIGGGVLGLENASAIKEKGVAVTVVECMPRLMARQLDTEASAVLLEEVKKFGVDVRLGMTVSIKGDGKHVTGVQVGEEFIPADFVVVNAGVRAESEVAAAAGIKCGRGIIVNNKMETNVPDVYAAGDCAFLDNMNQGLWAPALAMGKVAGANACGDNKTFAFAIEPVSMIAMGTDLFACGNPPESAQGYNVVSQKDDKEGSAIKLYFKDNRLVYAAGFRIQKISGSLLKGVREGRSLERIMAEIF
The following applies: co-purified cofactor, poorly occupied. An excerpt:
LC-MS quantification of bound flavin on TvFDPF2

For test [3], the target named is T3, TvFDPF1 (Trichomonas vaginalis, UniProt A2EP06).
T3 construct: gene TVAG_263800; full length, 871 residues, C-terminal His6 (pET30a, E. coli BL21 Star DE3); 272 kDa by gel filtration
T3 sequence (A2EP06 1-871): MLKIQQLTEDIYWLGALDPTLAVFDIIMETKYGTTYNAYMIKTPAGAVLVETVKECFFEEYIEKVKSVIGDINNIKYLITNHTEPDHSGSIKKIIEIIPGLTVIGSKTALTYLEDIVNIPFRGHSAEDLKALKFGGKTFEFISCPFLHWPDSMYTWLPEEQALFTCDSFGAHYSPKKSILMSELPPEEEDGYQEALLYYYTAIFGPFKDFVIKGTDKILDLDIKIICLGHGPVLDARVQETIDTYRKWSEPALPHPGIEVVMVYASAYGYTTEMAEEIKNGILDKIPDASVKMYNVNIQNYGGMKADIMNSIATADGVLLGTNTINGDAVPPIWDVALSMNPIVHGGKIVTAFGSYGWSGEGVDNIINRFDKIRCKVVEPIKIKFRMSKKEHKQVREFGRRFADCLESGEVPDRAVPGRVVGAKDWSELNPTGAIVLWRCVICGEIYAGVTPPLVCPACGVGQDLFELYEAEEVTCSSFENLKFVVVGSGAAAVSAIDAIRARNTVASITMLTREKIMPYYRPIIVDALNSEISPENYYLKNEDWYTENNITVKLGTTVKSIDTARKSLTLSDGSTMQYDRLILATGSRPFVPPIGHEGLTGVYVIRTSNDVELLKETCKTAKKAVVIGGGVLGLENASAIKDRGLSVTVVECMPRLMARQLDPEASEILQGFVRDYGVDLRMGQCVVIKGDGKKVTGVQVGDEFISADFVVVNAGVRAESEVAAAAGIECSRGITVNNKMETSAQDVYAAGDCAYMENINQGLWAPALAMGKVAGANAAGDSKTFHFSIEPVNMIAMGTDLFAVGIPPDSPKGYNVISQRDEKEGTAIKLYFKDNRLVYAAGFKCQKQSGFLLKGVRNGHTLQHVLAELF
As to conditions: co-purified cofactor. An excerpt: LC-MS quantification of bound flavin on TvFDPF1

For `Cc1cc2nc3c(=O)[nH]c(=O)nc-3n(C[C@H](O)[C@H](O)[C@H](O)COP(=O)(O)OP(=O)(O)OC[C@H]3O[C@@H](n4cnc5c(N)ncnc54)[C@H](O)[C@@H]3O)c2cc1C` [FAD], the “FAD per protein monomer” value in test [1] was 0.94 ± 0.09 mol per mol monomer; in test [2], 0.32 ± 0.05 mol per mol monomer; in test [3] it was 1.02 ± 0.05 mol per mol monomer.
